Experimental data from ChEMBL document CHEMBL4342445, “Structurally Diverse Meroterpenoids from a Marine-Derived Aspergillus sp. Fungus” (J Nat Prod, 2020).
Activity calls are given as the source filed them. The rule behind the calls is not given here.

These compounds were tested against Acetylcholinesterase (Homo sapiens) (UniProt P22303) (assay: Inhibition of human erythrocytes AChE at 50 uM using acetylthiocholine iodide as substrate preincubated for 20 mins followed by substrate addition and measured every 30 secs for 1 hr by spectrophotometry based Ellman's method).
Acetylcholinesterase (Homo sapiens), sequence (P22303 whole entry): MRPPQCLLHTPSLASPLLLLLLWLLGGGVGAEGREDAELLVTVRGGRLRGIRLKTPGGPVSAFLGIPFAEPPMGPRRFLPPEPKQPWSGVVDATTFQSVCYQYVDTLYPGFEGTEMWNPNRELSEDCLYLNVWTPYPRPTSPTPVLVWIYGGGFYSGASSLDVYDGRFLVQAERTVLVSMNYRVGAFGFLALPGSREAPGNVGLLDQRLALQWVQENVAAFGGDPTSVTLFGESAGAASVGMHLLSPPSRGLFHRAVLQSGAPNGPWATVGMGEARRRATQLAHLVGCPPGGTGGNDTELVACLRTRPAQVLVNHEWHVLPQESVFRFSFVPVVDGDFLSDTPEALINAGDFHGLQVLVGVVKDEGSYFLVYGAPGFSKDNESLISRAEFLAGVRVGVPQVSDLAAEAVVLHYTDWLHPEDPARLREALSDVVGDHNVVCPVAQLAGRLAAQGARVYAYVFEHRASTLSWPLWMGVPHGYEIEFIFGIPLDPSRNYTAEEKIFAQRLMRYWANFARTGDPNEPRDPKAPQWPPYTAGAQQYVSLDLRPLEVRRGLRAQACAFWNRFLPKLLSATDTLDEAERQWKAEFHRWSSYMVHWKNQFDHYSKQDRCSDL
With `C=C1[C@@]2(C)C[C@]3(C)[C@](C)(CC[C@@H]4C(C)(C)OC(=O)C=C[C@]43C)[C@@]13C(=O)O[C@H](C)[C@@]3(O)C2=O` the inhibition was “inactive”. In the case of `C=C1[C@@]2(C)C[C@H]3[C@]4(C)C=CC(=O)OC(C)(C)[C@H]4CC[C@]3(C)[C@]1(C(=O)OC)C(=O)[C@@](C)(O)C2=O`, the inhibition is reported as “inactive”. With `C=C1[C@@]2(C)CC3=C(C)[C@]4(C=CC(=O)OC4(C)C)CC[C@]3(C)[C@@]13C(=O)O[C@@H](C)[C@@]3(O)C2=O` the inhibition was “inactive”. For `C=C1[C@]2(C)C(=O)[C@]3(O)[C@H](C)OC(=O)[C@]13[C@@]1(C)CC[C@@]3(C=CC(=O)OC3(C)C)C(C)=C1[C@@H]2OC(C)=O`, the inhibition was “inactive”. In the case of `C=C1[C@@]2(C)CC3=C(C)[C@]4(C=CC(=O)OC4(C)C)CC[C@]3(C)[C@@]13C(=O)O[C@H](C)[C@@]3(O)C2=O`, the inhibition is reported as “inactive”. In the case of `C=C1[C@@]2(C(=O)OC)C(=O)[C@H](O)[C@]1(C)CC1=C(C)[C@]3(C=CC(=O)OC3(C)C)CC[C@@]12C`, the inhibition is reported as “inactive”. With `C=C1[C@@]23C(=O)O[C@H](C)[C@]24O[C@@]2(C(=C)[C@]5(C=CC(=O)OC5(C)C)CC[C@]32C)[C@H](OC(C)=O)[C@@]1(C)OC4=O` the inhibition was “inactive”. For `C=C1[C@@]23C(=O)O[C@H](C)[C@]24O[C@@]2(C(=C)[C@]5(CCC(=O)OC5(C)C)C[C@@H](OC(=O)/C(C)=C/C)[C@]32C)[C@H](OC(C)=O)[C@@]1(C)OC4=O`, the inhibition was “inactive”. In the case of `C=C1[C@@]23C(=O)O[C@H](C)[C@@]2(O)C(=O)O[C@]1(C)[C@@H](OC(C)=O)C1=C(C)[C@]2(C=CC(=O)OC2(C)C)CC[C@@]13C`, the inhibition is reported as “inactive”.
